Blank lines part the entries; values can stand above or below the compound they belong to.
Legend:
MIF [1] = tested on: MIF; set-up: method as in PMID 34153665, PMID 33823428; conditions: cited from earlier work
RAW 264.7 macrophages = experiment: RT-qPCR of LPS-induced proinflammatory gene expression; type: cell-based, murine; conditions: mRNA, LPS 200 ng/mL 6 h, then 300 nM compound 30 min
Text: All chemicals were purchased from commercial suppliers without additional purification required. […] Hits 1–6 compounds were obtained from WuXi AppTec (Shanghai, China) with a purity exceeding 98%. The high-performance liquid chromatography (HPLC) spectra data for each compound were provided in the Supplementary Materials (Figures S2.1–2.6). RAW 264.7 murine macrophages were purchased from the American Type Culture Collection (ATCC, TIB-71). 10% foetal bovine serum (FBS), 100 units/mL of penicillin, and 100 µg/mL of streptomycin were added to the Dulbecco’s modified Eagle’s medium (DMEM). The FBS, penicillin, streptomycin, and DMEM were purchased from Gibco (Grand Island, NY, USA). The cells were cultured in the incubator that was humidified with 5% CO2 and 95% air at 37 °C. The human recombinant MIF was purchased from Abcam (Cambridge, MA, USA) and catalogue number was ab51096. This experiment was carried out in accordance with the relevant literature. […] RAW 264.7 macrophages were subjected to treatment with LPS at a concentration of 200 ng/mL for 6 h. […] The Trizol method was used to extract the total ribonucleic acid (RNA) from the cells. The RNA reverse transcription kit (Invitrogen) was used to synthesise complementary deoxyribonucleic acid (cDNA) according to the manufacturer’s instructions. The SYRB Green qPCR kit and the primers were used for amplification. Thereafter, to standardise the data, the expression levels of the target genes were normalised to GAPDH and calculated by using the 2^−ΔΔCT method. The expression data were presented in the format of fold-change for clear visualisation.

MIF [2] = target: T1, MIF (Homo sapiens, UniProt P14174); experiment: MST assay, binding affinity to MIF; conditions: mean ± SD
T1 construct: purchased Abcam ab51096
T1 sequence (P14174 2-115 limits assumed): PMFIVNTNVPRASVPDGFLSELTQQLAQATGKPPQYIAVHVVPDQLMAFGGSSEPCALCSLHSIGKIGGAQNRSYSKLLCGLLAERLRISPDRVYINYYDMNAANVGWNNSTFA
Description: (§1) All chemicals were purchased from commercial suppliers without additional purification required. […] The high-performance liquid chromatography (HPLC) spectra data for each compound were provided in the Supplementary Materials (Figures S2.1–2.6). RAW 264.7 murine macrophages were purchased from the American Type Culture Collection (ATCC, TIB-71). 10% foetal bovine serum (FBS), 100 units/mL of penicillin, and 100 µg/mL of streptomycin were added to the Dulbecco’s modified Eagle’s medium (DMEM). The FBS, penicillin, streptomycin, and DMEM were purchased from Gibco (Grand Island, NY, USA). The cells were cultured in the incubator that was humidified with 5% CO2 and 95% air at 37 °C. The human recombinant MIF was purchased from Abcam (Cambridge, MA, USA) and catalogue number was ab51096.
The MST assay was used to measure the Kd value, aiming to assess the binding affinity between small molecules and targeted proteins in the field of drug discovery. […] The degree of labelling (DOL) of the MIF protein was calculated. The ideal DOL was in the range of 0.5–1. The Monolith™ RED-NHS second-generation protein labelling kit (NanoTemper Technologies) was used for the fluorescent labelling of MIF protein. We strictly followed the instructions of the kit for the experiment. The PBST (Phosphate-Buffered Saline with Tween) solution containing 0.05% Tween 20 was configured. The ligand was diluted into 16 concentration gradients using the semi-dilution method. The fluorescently labelled protein was added and thoroughly mixed, then incubated for 5 min in the dark. The solution was taken by capillary tube and assayed with the Monolith NT.115 instrument (NanoTemper Technologies). Subsequently, the difference was recorded in fluorescence intensity. The fluorescence intensity was plotted against the concentration of the hit compounds to generate a fluorescence dose curve, following which the Kd value was calculated.

MIF-CD74 binding = target: T2, MIF-CD74 binding (Homo sapiens, UniProt P14174); experiment: Pull down assay of GST-MIF with CD74; conditions: 40 nM biotin-Hit-1; 100 nM and 200 nM CD74; western blot
T2 sequence (P14174 1-115): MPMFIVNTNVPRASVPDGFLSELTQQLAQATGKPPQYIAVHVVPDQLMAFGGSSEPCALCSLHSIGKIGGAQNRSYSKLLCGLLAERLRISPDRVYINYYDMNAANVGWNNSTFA
Description: The pull down experiment was executed as described previously[36] and in line with defined standard principles. The pre-washed beads with purified GST-MIF were incubated for 2 h at 4 °C. The sample was centrifuged at 10 000 rpm and the purified protein was transferred to a new Eppendorf (EP) tube to remove non-specifically bound background proteins. The 40 nM of biotin-Hit-1 was added to the purified protein for incubation. […] The beads were washed five times with PBST. The proteins were denatured at 100 °C for 5 min. The protein bands were isolated and segregated via sodium dodecyl sulphate-polyacrylamide gel electrophoresis (SDS-PAGE) technique. The polyvinylidene fluoride (PVDF) membrane was pre-soaked in methanol. The protein bands were transferred onto the PVDF membrane under the condition of 200 mA. The membrane was blocked by incubating it with 3% bovine serum albumin (BSA) in PBS at 37 °C for 2 h. After every incubation period ended, the membrane was washed three times successively with PBST, with each washing step taking 10 min. Subsequently, the membrane was subjected to incubating with the primary antibody on a shaker overnight at 4 °C. […] Thereafter, the light signal was detected by a sophisticated detection system. Employing the Image J software, the intensity of the bands was quantified.

MIF [3] = target: T1, MIF; experiment: ITC assay, binding affinity to MIF; conditions: 25 °C, pH 7.5, mean ± SD
Description: as §1

Structure (SMILES): COC(=O)CC1CC(c2ccc(O)cc2)=NO1 (centres unmarked) [ISO-1]
Release of pro-inflammatory factors induced by LPS (TNF-α, IL-6, IL-1β) (MIF [1]): suppress the release

Structure (SMILES): COc1ccc(-c2cc(C)nc(SCc3cccc(C(=O)O)c3)n2)cc1 [Hit Z-312, 3-({[4-(4-methoxyphenyl)-6-methyl-2-pyrimidinyl]thio}1methyl)benzoic acid]
Release of pro-inflammatory factors induced by LPS (TNF-α, IL-6, IL-1β) (MIF [1]): suppress the release

Structure (SMILES): Oc1ccc(-n2cc(-c3ccc4ccccc4n3)nn2)cc1 [Hit 3a, reference compound]
Reduction of TNF-α level compared with the LPS group (RAW 264.7 macrophages): 2.2 fold

Structure (SMILES): c1ccc(-c2cc(-c3cn4cccnc4n3)on2)cc1 [Hit-3]
Kd (MIF [2]): 540 ± 20 nM

Structure (SMILES): Cc1ccn2cc(-c3cc(-c4ccccc4)no3)nc2c1 [Hit-2]
Kd (MIF [2]): 460 ± 30 nM

Structure (SMILES): CCc1ccn2cc(-c3cc(-c4ccccc4)no3)nc2c1 [Hit-1]
Reduction of TNF-α level compared with the LPS group (RAW 264.7 macrophages): 3.7 fold
Inhibitory effect on the IL-1β (RAW 264.7 macrophages; compared with compound 3a): distinctly stronger inhibitory effect
Inhibitory effect on the IL-6 level (RAW 264.7 macrophages; compared with compound 3a): markedly stronger inhibitory effect
Effect on MIF interaction with CD74 (MIF-CD74 binding): potently suppressed
Kd (MIF [2]): 290 ± 10 nM
Kd (MIF [3]): 320 ± 10 nM

Further lines, results first:

Kd (MIF [2]): 750 ± 60 nM
Structure (SMILES): Cc1nn(-c2ccccc2)nc1-c1nnc(-c2ccc(Cl)cc2)o1 [Hit-4]

Kd (MIF [2]): 810 ± 40 nM
Structure (SMILES): Cc1nn(-c2ccccc2)nc1-c1nnc(-c2ccccc2)o1 [Hit-5]

Kd (MIF [2]): 720 ± 50 nM
Structure (SMILES): Cc1nn(-c2ccccc2)nc1-c1nnc(-c2ccc(C(F)(F)F)cc2)o1 [Hit-6]

Source: paper PMC12172083, “Identification of a novel and high affinity MIF inhibitor via structure-based pharmacophore modelling, molecular docking, molecular dynamics simulations, and biological evaluation” (Journal of Enzyme Inhibition and Medicinal Chemistry, 2025)
